Measurements published in patent US10294248B2, “Beta-lactamase inhibitors” (VenatoRx Pharmaceuticals, Inc., priority 2013, dated 2019).

Key:
[1] = biological target: T1, SHV-5 β-lactamase (Class A ESBL) (Klebsiella pneumoniae, UniProt P0A3M1); assay: β-Lactamase inhibition, SHV-5; assay type: biochemical
T1 construct: made in house; host or cells: E. coli BL21(DE3)
In short: (§1)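 Untagged enzyme from E. coli BL21(DE3), purified by Capto S then Superdex 75; 15 min 37 °C preincubation with inhibitor; KPC-2 read with imipenem at 300 nm, SHV-5 with cefotaxime at 260 nm, OXA-1 with nitrocefin 100 μM final at 486 nm; 10 min kinetic read; IC50 vs uninhibited wells.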

[2] = biological target: T2, KPC-2 β-lactamase (Class A carbapenemase) (Klebsiella pneumoniae, UniProt Q9F663); assay: β-Lactamase inhibition, KPC-2; assay type: biochemical; conditions: imipenem substrate, 300 nm; 15 min preincubation at 37° C., PBS pH 7.4
T2 construct: made in house; host or cells: E. coli BL21(DE3)
T2 sequence (Q9F663 25-293, looked up): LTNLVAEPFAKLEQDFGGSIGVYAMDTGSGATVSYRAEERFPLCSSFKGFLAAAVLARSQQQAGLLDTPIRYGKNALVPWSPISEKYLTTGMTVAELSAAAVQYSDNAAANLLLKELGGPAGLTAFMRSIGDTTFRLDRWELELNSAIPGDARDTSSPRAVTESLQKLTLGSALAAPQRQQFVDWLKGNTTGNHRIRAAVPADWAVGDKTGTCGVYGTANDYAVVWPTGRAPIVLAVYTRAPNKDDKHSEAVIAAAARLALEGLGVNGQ
In short: as §1

[3] = biological target: T3, VIM-2 metallo-β-lactamase (Class B) (Pseudomonas aeruginosa, UniProt Q9K2N0); assay: β-Lactamase inhibition, VIM-2; assay type: biochemical; conditions: nitrocefin 100 μM, 486 nm; 15 min preincubation at 37° C., PBS pH 7.4
T3 construct: made in house; host or cells: E. coli BL21(DE3)
In short: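 Metallo-β-lactamase VIM-2 activity was tracked spectrophotometrically at 486 nm with 100 μM nitrocefin over 10 min, following 15 min preincubation with compound at 37 °C; inhibition was calculated per concentration.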

[4] = biological target: T4, p99 AmpC β-lactamase (Class C) (Enterobacter cloacae, UniProt P05364); assay: β-Lactamase inhibition, p99 AmpC; assay type: biochemical
T4 construct: made in house; host or cells: E. coli BL21(DE3)
T4 sequence (P05364 21-381): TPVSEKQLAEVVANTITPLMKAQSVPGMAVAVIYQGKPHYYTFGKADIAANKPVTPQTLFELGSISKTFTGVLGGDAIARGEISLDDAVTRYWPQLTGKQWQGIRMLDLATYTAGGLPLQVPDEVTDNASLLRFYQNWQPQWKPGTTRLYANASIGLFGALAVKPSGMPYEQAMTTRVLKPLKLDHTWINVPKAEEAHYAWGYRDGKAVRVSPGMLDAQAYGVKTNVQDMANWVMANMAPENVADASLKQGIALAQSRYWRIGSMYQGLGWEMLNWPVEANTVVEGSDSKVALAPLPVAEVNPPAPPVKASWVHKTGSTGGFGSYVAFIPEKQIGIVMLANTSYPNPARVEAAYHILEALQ

[5] = biological target: T5, OXA-1 β-lactamase (Class D oxacillinase) (Escherichia coli, UniProt P13661); assay: β-Lactamase inhibition, OXA-1; assay type: biochemical; conditions: nitrocefin 100 μM, 486 nm; 15 min preincubation at 37° C., PBS pH 7.4
T5 construct: made in house; host or cells: E. coli BL21(DE3)
T5 sequence (P13661 26-276): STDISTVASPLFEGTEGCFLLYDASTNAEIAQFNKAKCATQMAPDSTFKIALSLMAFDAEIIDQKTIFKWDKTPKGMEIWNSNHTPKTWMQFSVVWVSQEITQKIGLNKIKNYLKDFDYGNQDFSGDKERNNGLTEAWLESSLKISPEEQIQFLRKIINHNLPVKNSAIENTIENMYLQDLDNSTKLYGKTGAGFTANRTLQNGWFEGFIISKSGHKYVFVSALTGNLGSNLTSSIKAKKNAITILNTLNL
In short: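 Compounds are mixed with purified, untagged recombinant β-lactamase and held 15 min at 37 °C. Substrate is then added: nitrocefin (100 μM final) for OXA-1, imipenem for KPC-2, cefotaxime for SHV-5. Absorbance is followed immediately, and percent inhibition per concentration gives the IC50.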

[6] = test system: E. coli ESBL4 expressing CTX-M-15; assay: Broth microdilution MIC, E. coli ESBL4 CTX-M-15; assay type: cell-based; conditions: fixed 4 μg/mL ceftazidime; CAMHB, 16-20 hours at 37° C.
In short: (§2)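 Visual MIC readout follows 16-20 h incubation at 37° C. Final compound range spans 32 down to 0.25 μg/ml in two-fold steps, each well also carrying a β-lactam at a static 4 μg/ml, with inoculation done by the CLSI microdilution method in cation-adjusted Mueller Hinton broth.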

[7] = test system: E. cloacae 144200 expressing Class C P99 AmpC; assay: Broth microdilution MIC, E. cloacae 144200 p99 AmpC; assay type: cell-based; conditions: fixed 4 μg/mL ceftazidime; CAMHB, 16-20 hours at 37° C.
In short: as §2

[8] = test system: K. pneumoniae 156319 expressing KPC-3; assay: Broth microdilution MIC, K. pneumoniae 156319 KPC-3; assay type: cell-based; conditions: fixed 4 μg/mL meropenem; CAMHB, 16-20 hours at 37° C.
In short: as §2

[9] = test system: P. aeruginosa Ps296 expressing VIM-2; assay: Broth microdilution MIC, P. aeruginosa Ps296 VIM-2; assay type: cell-based; conditions: fixed 4 μg/mL meropenem; CAMHB, 16-20 hours at 37° C.
In short: as §2

[10] = test system: K. pneumoniae A-1797 expressing KPC-2 and VIM-4; assay: Broth microdilution MIC, K. pneumoniae A-1797 KPC-2/VIM-4; assay type: cell-based; conditions: fixed 4 μg/mL meropenem; CAMHB, 16-20 hours at 37° C.
In short: as §2

[11] = test system: S. aureus MSSA-7 producing penicillinase PC-1; assay: Broth microdilution MIC, S. aureus MSSA-7 PC-1; assay type: cell-based; conditions: fixed 4 μg/mL piperacillin; CAMHB, 16-20 hours at 37° C.
In short: as §2

T1 sequence (P0A3M1 22-286): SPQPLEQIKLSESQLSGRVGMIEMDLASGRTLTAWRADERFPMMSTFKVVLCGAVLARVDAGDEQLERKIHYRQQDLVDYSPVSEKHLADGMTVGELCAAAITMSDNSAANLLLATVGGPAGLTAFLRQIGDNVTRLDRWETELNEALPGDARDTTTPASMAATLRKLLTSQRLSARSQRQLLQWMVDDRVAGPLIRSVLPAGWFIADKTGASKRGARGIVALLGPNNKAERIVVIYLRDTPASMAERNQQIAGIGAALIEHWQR

SMILES | IC50 [1] [nM] | IC50 [2] [nM] | IC50 [3] [nM] | IC50 [4] [nM] | IC50 [5] [nM] | MIC of example compound in presence of fixed β-lactam: Fixed CAZ, E. coli ESBL4 CTX-M-15 [6] | MIC of example compound in presence of fixed β-lactam: Fixed CAZ, E. cl. 144200 p99 AmpC [7] | MIC of example compound in presence of fixed β-lactam: Fixed Mero, K. P. 156319 KPC-3 [8] | MIC of example compound in presence of fixed β-lactam: Fixed Mero, P. aerug. Ps296 VIM-2 [9] | MIC of example compound in presence of fixed β-lactam: Fixed Mero, K. P. A-1797 KPC-2 VIM-4 [10] | MIC of example compound in presence of fixed β-lactam: Fixed Pip, S. aureus MSSA-7 PC-1 [11]
NCC1CCCN(CC(=O)N[C@H]2Cc3cccc(C(=O)O)c3OB2O)C1 (some centres unmarked) [Example 19, 3-[2-(3-Aminomethyl-piperidin-1-yl)-acetylamino]-2-hydroxy-3,4-dihydro-2H-benzo[e][1,2]oxaborinine-8-carboxylic acid] | < 100 | 100 to 1000 | 10000 to 100000 | < 100 | < 100 | C (the MIC in the presence of <4 μg/mL of a β-lactamase inhibitor) | C (the MIC in the presence of <4 μg/mL of a β-lactamase inhibitor) | B (the MIC in the presence of between 8 and 32 μg/mL of a β-lactamase inhibitor) | A (an MIC of the fixed β-lactam antibiotic in the presence of >32 μg/mL of a β-lactamase inhibitor) | A (an MIC of the fixed β-lactam antibiotic in the presence of >32 μg/mL of a β-lactamase inhibitor) | B (the MIC in the presence of between 8 and 32 μg/mL of a β-lactamase inhibitor)
CNC1CCN(CC(=O)N[C@H]2Cc3cccc(C(=O)O)c3OB2O)CC1O (some centres unmarked) [Example 20, 2-Hydroxy-3-[2-(3-hydroxy-4-methylamino-piperidin-1-yl)-acetylamino]-3,4-dihydro-2H-benzo[e][1,2]oxaborinine-8-carboxylic acid] | 100 to 1000 | 100 to 1000 | 1000 to 10000 | < 100 | < 100 | C (the MIC in the presence of <4 μg/mL of a β-lactamase inhibitor) | C (the MIC in the presence of <4 μg/mL of a β-lactamase inhibitor) | C (the MIC in the presence of <4 μg/mL of a β-lactamase inhibitor) | B (the MIC in the presence of between 8 and 32 μg/mL of a β-lactamase inhibitor) | A (an MIC of the fixed β-lactam antibiotic in the presence of >32 μg/mL of a β-lactamase inhibitor) | C (the MIC in the presence of <4 μg/mL of a β-lactamase inhibitor)
COC1CN(CC(=O)N[C@H]2Cc3cccc(C(=O)O)c3OB2O)CCC1N (some centres unmarked) [Example 21, 3-[2-(4-Amino-3-methoxy-piperidin-1-yl)-acetylamino]-2-hydroxy-3,4-dihydro-2H-benzo[e][1,2]oxaborinine-8-carboxylic acid] | < 100 | 100 to 1000 | 1000 to 10000 | < 100 | < 100 | C (the MIC in the presence of <4 μg/mL of a β-lactamase inhibitor) | C (the MIC in the presence of <4 μg/mL of a β-lactamase inhibitor) | C (the MIC in the presence of <4 μg/mL of a β-lactamase inhibitor) | B (the MIC in the presence of between 8 and 32 μg/mL of a β-lactamase inhibitor) | A (an MIC of the fixed β-lactam antibiotic in the presence of >32 μg/mL of a β-lactamase inhibitor) | C (the MIC in the presence of <4 μg/mL of a β-lactamase inhibitor)
NC1CCN(CCC(=O)N[C@H]2Cc3cccc(C(=O)O)c3OB2O)CC1 [Example 22, 3-[3-(4-Amino-piperidin-1-yl)-propionylamino]-2-hydroxy-3,4-dihydro-2H-benzo[e][1,2]oxaborinine-8-carboxylic acid] | 100 to 1000 | 100 to 1000 | 1000 to 10000 | < 100 | 100 to 1000 | C (the MIC in the presence of <4 μg/mL of a β-lactamase inhibitor) | C (the MIC in the presence of <4 μg/mL of a β-lactamase inhibitor) | B (the MIC in the presence of between 8 and 32 μg/mL of a β-lactamase inhibitor) | A (an MIC of the fixed β-lactam antibiotic in the presence of >32 μg/mL of a β-lactamase inhibitor) | A (an MIC of the fixed β-lactam antibiotic in the presence of >32 μg/mL of a β-lactamase inhibitor) | C (the MIC in the presence of <4 μg/mL of a β-lactamase inhibitor)
O=C(CCN1CCNCC1)N[C@H]1Cc2cccc(C(=O)O)c2OB1O [Example 23, 2-Hydroxy-3-(3-piperazin-1-yl-propionylamino)-3,4-dihydro-2H-benzo[e][1,2]oxaborinine-8-carboxylic acid] | < 100 | < 100 | 1000 to 10000 | < 100 | < 100 | C (the MIC in the presence of <4 μg/mL of a β-lactamase inhibitor) | C (the MIC in the presence of <4 μg/mL of a β-lactamase inhibitor) | C (the MIC in the presence of <4 μg/mL of a β-lactamase inhibitor) | B (the MIC in the presence of between 8 and 32 μg/mL of a β-lactamase inhibitor) | B (the MIC in the presence of between 8 and 32 μg/mL of a β-lactamase inhibitor) | C (the MIC in the presence of <4 μg/mL of a β-lactamase inhibitor)
NC1CCN(CC(=O)N[C@H]2Cc3cccc(C(=O)O)c3OB2O)CC1O (some centres unmarked) [Example 24, 3-[2-(4-Amino-3-hydroxy-piperidin-1-yl)-acetylamino]-2-hydroxy-3,4-dihydro-2H-benzo[e][1,2]oxaborinine-8-carboxylic acid] | 100 to 1000 | 100 to 1000 | 10000 to 100000 | < 100 | 100 to 1000 | C (the MIC in the presence of <4 μg/mL of a β-lactamase inhibitor) | C (the MIC in the presence of <4 μg/mL of a β-lactamase inhibitor) | B (the MIC in the presence of between 8 and 32 μg/mL of a β-lactamase inhibitor) | B (the MIC in the presence of between 8 and 32 μg/mL of a β-lactamase inhibitor) | B (the MIC in the presence of between 8 and 32 μg/mL of a β-lactamase inhibitor) | C (the MIC in the presence of <4 μg/mL of a β-lactamase inhibitor)
O=C(O)CN1CCN(CC(=O)N[C@H]2Cc3cccc(C(=O)O)c3OB2O)CC1 [Example 25, 3-[2-(4-Carboxymethyl-piperazin-1-yl)-acetylamino]-2-hydroxy-3,4-dihydro-2H-benzo[e][1,2]oxaborinine-8-carboxylic acid] | < 100 | 100 to 1000 | 10000 to 100000 | < 100 | < 100 | C (the MIC in the presence of <4 μg/mL of a β-lactamase inhibitor) | C (the MIC in the presence of <4 μg/mL of a β-lactamase inhibitor) | B (the MIC in the presence of between 8 and 32 μg/mL of a β-lactamase inhibitor) | B (the MIC in the presence of between 8 and 32 μg/mL of a β-lactamase inhibitor) | B (the MIC in the presence of between 8 and 32 μg/mL of a β-lactamase inhibitor) | C (the MIC in the presence of <4 μg/mL of a β-lactamase inhibitor)
